inhibition, melting point and IC50 data for 25 compounds are collected here from US8263606B2 (Xenon Pharmaceuticals Inc., priority 2008, dated 2012).

The target of data set [1] is CYP3A4 (Homo sapiens, UniProt P08684). As to the kind of experiment: Cytochrome P450 (CYP450) Inhibition Assay, CYP3A4 (Vivid fluorescence, BOMCC substrate). The following applies: human, P450 Baculosomes (recombinant CYP3A4), probe BOMCC (Vivid substrate).
In data set [2] the test system is sodium channel. As to the kind of experiment: Guanidine influx assay (14C-guanidine radiotracer flux, in vitro). In kind it is cell-based, human or rat. The conditions noted are these: guanidine influx assay using a known cell line that expresses a sodium channel; activity level class. In short, it runs like this: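 Test agents at half-step dilutions around 1 μM are added to plated cells in low-sodium HEPES buffer, then an aconitine/14C-guanidine mixture; after ambient-temperature incubation, cells are washed and counted. IC50 comes from a sigmoidal fit.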

Bounds are passed on as bounds.

In general, inhibition refers to the share of the control response that was lost under treatment. As usually defined, the melting point is the temperature, or range, at which the solid turns liquid. By IC50 is commonly meant the concentration at which inhibition is half-maximal.

CYP3A4, sequence (P08684 whole entry): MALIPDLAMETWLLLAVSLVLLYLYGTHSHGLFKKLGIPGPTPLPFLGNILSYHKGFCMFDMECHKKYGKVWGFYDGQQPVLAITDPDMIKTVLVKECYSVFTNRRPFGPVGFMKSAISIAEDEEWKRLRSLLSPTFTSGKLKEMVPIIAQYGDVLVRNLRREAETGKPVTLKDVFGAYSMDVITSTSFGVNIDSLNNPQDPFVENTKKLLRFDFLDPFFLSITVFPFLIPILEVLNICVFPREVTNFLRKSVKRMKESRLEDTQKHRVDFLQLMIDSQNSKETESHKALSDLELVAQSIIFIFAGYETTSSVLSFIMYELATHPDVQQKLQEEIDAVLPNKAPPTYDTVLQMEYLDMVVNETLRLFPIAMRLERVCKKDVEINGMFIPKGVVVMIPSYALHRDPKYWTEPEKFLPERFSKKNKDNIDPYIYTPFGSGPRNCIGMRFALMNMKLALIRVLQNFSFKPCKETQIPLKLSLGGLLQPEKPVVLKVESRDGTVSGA

`CCCCCN1C(=O)[C@]2(COc3cc4c(cc32)CCO4)c2ccccc21` [Example 5.3, (3R)-1′-pentyl-5,6-dihydrospiro[benzo[1,2-b:5,4-b′]difuran-3,3′-indol]-2′(1′H)-one] yielded a melting point of 128 to 129 °C. Moreover, the inhibition at 10 µM in data set [1] is above 50%. In addition, the IC50 in data set [2] lay in the range of 1 to 10 µM.
For `Cn1c(=O)oc2cc3c(cc21)OCC31C(=O)N(Cc2ccc(C(F)(F)F)o2)c2ccccc21` (stereo not drawn) [Example 5.8, 3-methyl-1′-{[5-(trifluoromethyl)furan-2-yl]methyl}spiro[furo[2,3-f][1,3]benzoxazole-7,3′-indole]-2,2′(1′H,3H)-dione], the melting point lay in the range of 198 to 199 °C. For the same compound, the inhibition at 10 µM in data set [1] is above 50%. For the same compound, the IC50 in data set [2] lay in the range of 1 to 10 µM.
The corresponding values for `O=C1N(Cc2cccc(Cl)n2)c2ccccc2C12COc1cc3c(cc12)OCCO3` (stereo not drawn) [Example 5.13, 1′-[(6-chloropyridin-2-yl)methyl]-2,3-dihydrospiro[furo[2,3-g][1,4]benzodioxine-8,3′-indol]-2′(1′H)-one] are 181 to 182 °C, above 50% and 0.001 to 0.1 µM.
In turn, `COc1ccc(CN2C(=O)C3(COc4cc5c(cc43)OCCO5)c3ccccc32)cn1` (stereo not drawn) [Example 5.15, 1′-[(6-methoxypyridin-3-yl)methyl]-2,3-dihydrospiro[furo[2,3-g][1,4]-benzodioxine-8,3′-indol]-2′(1′H)-one] had a melting point of 161 to 162 °C. In addition, the inhibition at 10 µM in data set [1] was below 50%. For the same compound, the IC50 in data set [2] was in the range of 0.001 to 0.1 µM.
`O=C1N(Cc2cnccn2)c2ccccc2[C@]12COc1cc3c(cc12)OCCO3` [Example 5.16, (8S)-1′-(pyrazin-2-ylmethyl)-2,3-dihydrospiro[furo[2,3-g][1,4]benzodioxine-8,3′-indol]-2′(1′H)-one]: the melting point fell in the range of 216 to 218 °C. Further, the inhibition at 10 µM in data set [1] is below 50%. Besides, the IC50 in data set [2] fell in the range of 0.001 to 0.1 µM.
For the compound `CN1C(=O)C2(C(=O)N(Cc3ccccn3)c3ccccc32)c2cc3c(cc21)OCCO3` (stereo not drawn) [Example 5.19, 6-methyl-1′-(pyridin-2-ylmethyl)-2,3-dihydrospiro[1,4-dioxino[2,3-f]indole-8,3′-indole]-2′,7(1H,6H)-dione], the melting point was in the range of 87 to 89 °C. Also, in data set [1], the inhibition at 10 µM is below 50%. Also, the IC50 in data set [2] was in the range of 1 to 10 µM.
As to `O=C1N(CC2CC2(F)F)c2ccccc2C12COc1cc3c(cc12)OCCO3` (stereo not drawn) [Example 5.21, 1′-[(2,2-difluorocyclopropyl)methyl]-2,3-dihydrospiro[furo[2,3-g][1,4]benzodioxine-8,3′-indol]-2′(1′H)-one], the melting point was in the range of 162 to 164 °C. Moreover, the inhibition at 10 µM in data set [1] was below 50%. Also, the half-inhibitory concentration (IC50) in data set [2] was in the range of 0.001 to 0.1 µM.
`CN1C(=O)C2(COc3cc4c(cc32)OCCO4)c2ccccc21` (stereo not drawn) [Example 5.22, 1′-methyl-2,3-dihydrospiro[furo[2,3-g][1,4]benzodioxine-8,3′-indol]-2′(1′H)-one] showed a melting point of 152 to 154 °C. Moreover, the inhibition at 10 µM in data set [1] was below 50%. Also, the IC50 in data set [2] was 0.001 to 0.1 µM.
As to `O=C1N(Cc2nc(C(F)(F)F)cs2)c2ccccc2C12COc1cc3c(cc12)OCCO3` (stereo not drawn) [Example 5.23, 1′-{[4-(trifluoromethyl)-1,3-thiazol-2-yl]methyl}-2,3-dihydrospiro[furo[2,3-g][1,4]benzodioxine-8,3′-indol]-2′(1′H)-one], the melting point fell in the range of 169 to 170 °C. Besides, the inhibition at 10 µM in data set [1] is above 50%. Further, in data set [2], the concentration for half-maximal inhibition (IC50) fell in the range of 0.001 to 0.1 µM.
With `O=C1N(Cc2ncccn2)c2ccccc2C12COc1cc3c(cc12)OCCO3` (stereo not drawn) [Example 5.32, 1′-(pyrimidin-2-ylmethyl)-2,3-dihydrospiro[furo[2,3-g][1,4]-benzodioxine-8,3′-indol]-2′(1′H)-one], the melting point was in the range of 278 to 279 °C. Also, the inhibition at 10 µM in data set [1] was below 50%. The IC50 in data set [2] was in the range of 0.001 to 0.1 µM.
`COc1cc(OC)nc(CN2C(=O)C3(COc4cc5c(cc43)OCCO5)c3ccccc32)n1` (stereo not drawn) [Example 5.33, 1′-[(4,6-dimethoxypyrimidin-2-yl)methyl]-2,3-dihydrospiro[furo[2,3-g][1,4]benzodioxine-8,3′-indol]-2′(1′H)-one] had a melting point of 169 to 170 °C. The inhibition at 10 µM in data set [1] was above 50%. For the same compound, the IC50 in data set [2] was in the range of 0.001 to 0.1 µM.
The compound `COCCOc1ccc2c(c1)OCC21C(=O)N(Cc2ccccn2)c2ccccc21` (stereo not drawn) [Example 5.34, 6-(2-methoxyethoxy)-1′-(pyridin-2-ylmethyl)spiro[1-benzofuran-3,3′-indol]-2′(1′H)-one] displayed a melting point of 94 to 95 °C. The inhibition at 10 µM in data set [1] is below 50%. The IC50 in data set [2] was in the range of 0.1 to 1 µM.
The compound `COCCOc1ccc2c(c1)C1(CO2)C(=O)N(Cc2ccccn2)c2ccccc21` (stereo not drawn) [Example 5.35, 5-(2-methoxyethoxy)-1′-(pyridin-2-ylmethyl)spiro[1-benzofuran-3,3′-indol]-2′(1′H)-one] came in with a melting point of 140 to 142 °C. In addition, the inhibition at 10 µM in data set [1] is below 50%. Besides, the IC50 in data set [2] was in the range of 0.1 to 1 µM.
The compound `O=C1N(Cc2ccccn2)c2ccccc2C12COc1c2ccc2c1OCCO2` (stereo not drawn) [Example 5.36, 1-(pyridin-2-ylmethyl)-2,3-dihydrospiro[furo[2,3-f][1,4]benzodioxine-7,3′-indol]-2′(1′H)-one] returned a melting point of 205 to 206 °C. For the same compound, the inhibition at 10 µM in data set [1] is below 50%. Besides, the half-inhibitory concentration (IC50) in data set [2] is 0.1 to 1 µM.
Take `O=C1N(Cc2ncccc2C(F)(F)F)c2ccccc2C12COc1c2ccc2c1OCCO2` (stereo not drawn) [Example 5.37, 1′-{[3-(trifluoromethyl)pyridin-2-yl]methyl}-2,3-dihyrospiro[furo[2,3-f][1,4]benzodioxine-7,3′-indol]-2′(1′H)-one]: the melting point was 206 to 207 °C. Besides, the inhibition at 10 µM in data set [1] is below 50%. The IC50 in data set [2] lay in the range of 0.1 to 1 µM.
Regarding `O=C1N(Cc2cc(=O)[nH]c(=O)[nH]2)c2ccccc2C12COc1cc3c(cc12)OCO3` (stereo not drawn) [Example 5.38, 6-[(2′-oxospiro[furo[2,3-f][1,3]benzodioxole-7,3′-indol]-1′(2′H)-yl)methyl]pyrimidine-2,4(1H,3H)-dione], the melting point is above 300 °C. In data set [1], the inhibition at 10 µM is below 50%. For the same compound, the IC50 in data set [2] is 1 to 10 µM.
As for `O=C1N(Cc2nsc(Cl)n2)c2ccccc2C12COc1cc3c(cc12)OCO3` (stereo not drawn) [Example 6, 1′-[(5-chloro-1,2,4-thiadiazol-3-yl)methyl]spiro[furo[2,3-f][1,3]benzodioxole-7,3′-indol]-2′(1′H)-one], the melting point lay in the range of 114 to 116 °C. In addition, in data set [1], the inhibition at 10 µM was above 50%. The IC50 in data set [2] was 0.001 to 0.1 µM.
The compound `O=C1N(Cc2nsc(Cl)n2)c2cccc(Cl)c2C12COc1cc3c(cc12)OCO3` (stereo not drawn) [Example 6.1, 4′-chloro-1′-[(5-chloro-1,2,4-thiadiazol-3-yl)methyl]spiro[furo[2,3-f][1,3]benzodioxole-7,3′-indol]-2′(1′H)-one] yielded a melting point of 174 to 176 °C. Besides, in data set [1], the inhibition at 10 µM was above 50%. Also, the IC50 in data set [2] was in the range of 0.001 to 0.1 µM.
On to `O=C1N(Cc2sccc2Cl)c2ccccc2C12COc1cc3c(cc12)OCO3` (stereo not drawn) [Example 6.3, 1′-[(3-chlorothiophen-2-yl)methyl]spiro[furo[2,3-f][1,3]benzodioxole-7,3′-indol]-2′(1′H)-one], for which the melting point was in the range of 161 to 163 °C. Also, the inhibition at 10 µM in data set [1] was above 50%. For the same compound, the IC50 in data set [2] fell in the range of 0.001 to 0.1 µM.
With `Cc1onc(-c2c(Cl)cccc2Cl)c1CN1C(=O)C2(COc3cc4c(cc32)OCO4)c2ccccc21` (stereo not drawn) [Example 6.4, 1′-{[3-(2,6-dichlorophenyl)-5-methylisoxazol-4-yl]methyl}spiro[furo[2,3-f][1,3]benzodioxole-7,3′-indol]-2′(1′H)-one], the melting point fell in the range of 190 to 192 °C. For the same compound, in data set [1], the inhibition at 10 µM was above 50%. The IC50 in data set [2] lay within 1 to 10 µM.
As for `O=C1N(Cc2csc(-c3ccc(C(F)(F)F)cc3)n2)c2ccccc2C12COc1cc3c(cc12)OCO3` (stereo not drawn) [Example 6.5, 1′-({2-[4-(trifluoromethyl)phenyl]-1,3-thiazol-4-yl}methyl)spiro[furo[2,3-f][1,3]benzodioxole-7,3′-indol]-2′(1′H)-one], the melting point was 151 to 153 °C. The inhibition at 10 µM in data set [1] was above 50%. The IC50 in data set [2] lay within 0.1 to 1 µM.
For `O=C1N(Cc2nnc(-c3ccccc3)o2)c2ccccc2C12COc1cc3c(cc12)OCO3` (stereo not drawn) [Example 6.6, 1′-[(5-phenyl-1,3,4-oxadiazol-2-yl)methyl]spiro[furo[2,3-f][1,3]benzodioxole-7,3′-indol]-2′(1′H)-one], the melting point lay in the range of 158 to 160 °C. Besides, the inhibition at 10 µM in data set [1] is above 50%. For the same compound, the IC50 in data set [2] lay within 0.1 to 1 µM.
`O=C1N(Cc2nnc(-c3ccc(Cl)cc3)o2)c2ccccc2C12COc1cc3c(cc12)OCO3` (stereo not drawn) [Example 6.7, 1′-{[5-(4-chlorophenyl)-1,3,4-oxadiazol-2-yl]methyl}spiro[furo[2,3-f][1,3]benzodioxole-7,3′-indol]-2′(1′H)-one] showed a melting point of 161 to 162 °C. Also, in data set [1], the inhibition at 10 µM was above 50%. Besides, the IC50 in data set [2] lay in the range of 0.1 to 1 µM.
Compound `O=C1N(Cc2nc3ncccc3o2)c2ccccc2C12COc1cc3c(cc12)OCO3` (stereo not drawn) [Example 6.8, 1′-([1,3]oxazolo[4,5-b]pyridin-2-ylmethyl)spiro[furo[2,3-f][1,3]benzodioxole-7,3′-indol]-2′(1′H)-one] had a melting point of 202 to 204 °C. Also, in data set [1], the inhibition at 10 µM is below 50%. Besides, in data set [2], the concentration for half-maximal inhibition (IC50) lay in the range of 0.001 to 0.1 µM.
Compound `O=C1N(Cc2cccc(C(F)(F)F)c2)c2ccccc2C12COc1cc3c(cc12)OCCO3` (stereo not drawn) [Example 7.1, 1′-[3-(trifluoromethyl)benzyl]-2,3-dihydrospiro[furo[2,3-g][1,4]benzodioxine-8,3′-indol]-2′(1′H)-one] yielded a melting point of 131 to 134 °C. In addition, the inhibition at 10 µM in data set [1] is below 50%. For the same compound, in data set [2], the IC50 is 0.001 to 0.1 µM.
